These results are taken from patent publication US10155021B2, “Antimicrobial 4-oxoquinolizines” (Emergent Product Development Gaithersburg Inc., priority 2011, dated 2018).

Converted amounts (≈) assume the structure as drawn. “And” between values parts separate entries of the source, which are not always exact repeats. Equal entries are not always repeated.

Assay [1] deals with GN48 Klebsiella pneumoniae. Briefly: Chequerboard synergy with polymyxin B (FICI). The format is cell-based. The source says: (§1) A chequerboard technique was used to identify possible synergistic or antagonistic interactions between the 4-oxoquinolizines compounds, levofloxacin and polymyxin B. Levofloxacin was included as a control. […] Final dilutions were made in Mueller-Hinton broth, the specific test medium used for MIC determinations according to CLSI guidelines (CLSI. Methods for Dilution Antimicrobial Susceptibility Tests for Bacteria That Grow Aerobically; Approved Standard-Eighth Edition (2009). CLSI Document M07-A8. CLSI, Wayne, Pa. 19087-1898, USA.). The test medium used was a cation-adjusted Mueller-Hinton Broth II (Becton Dickinson UK Ltd., Oxford Science Park, Oxford, UK, OX4 4DQ).
(§2) The compounds 2, 33 and 35, as well as levofloxacin were tested in combination with polymyxin B on the following isolates: GN31 Acinetobacter baumannii—antibiotic susceptible clinical isolate, GN52 Acinetobacter baumannii—levofloxacin resistant clinical isolate, GN56 Acinetobacter baumannii—levofloxacin resistant clinical isolate, GN48 Klebsiella pneumoniae—NCTC 13443—NDM-1-metallo-R-lactamase and GN10 Pseudomonas aeruginosa—ATCC 27853—antibiotic susceptible reference isolate. All isolates are from the collection maintained at Quotient Bioresearch Ltd., Cambridge, UK.
(§3) The MIC values for the compounds and polymyxin B and levofloxacin were determined by broth microdilution following CLSI guidelines, and the MICs of agents in combination were determined as described by Pillai et.al (Pillai S K, Moellering R C Jr, Eliopoulis G M; Antimicrobial Combinations in Antibiotics in Laboratory Medicine 5th Edition (V. Lorian Ed) (2005) p 365-440). Initial MIC results were used to determine the microtiter plate patterns for the chequerboards. A suitable doubling dilution concentration range was selected such that the combination antibiotic range was at least two concentrations above and four concentrations below the MIC for each isolate. A fixed range of 0.008 to 8 mg/L was tested for polymyxin B except in the case of A. baumannii GN31 where a range of 0.004 to 4 mg/L was tested when in combination with the compounds 2, 33 and 35 as well as levofloxacin.
(§4) From the raw data, fractional inhibitory concentration indices (FICI) were determined for the compounds of the invention and levofloxacin together with polymyxin B for each isolate as follows: FICI=FICX+FICY Where,
(§5) FICX=concentration of the combination antibiotic in a particular row÷MIC of the combination drug alone
(§6) FICY=MIC of polymyxin B in combination÷MIC of the polymyxin B alone
(§7) Additionally isobolograms were created to represent the same data visually. Here, the MIC of polymyxin B was plotted against every concentration of the combination antibiotic up to the MIC.

For assay [2], the system named is GN31 Acinetobacter baumannii. Briefly: Chequerboard synergy with polymyxin B (FICI). The format is cell-based.
Excerpt: as §1, §2, §3, §4, §5, §6, §7

In assay [3] the test system is GN52 Acinetobacter baumannii. Briefly: Chequerboard synergy with polymyxin B (FICI). The format is cell-based.
Excerpt: as §1, §2, §3, §4, §5, §6, §7

For assay [4], the system named is GN56 Acinetobacter baumannii. Briefly: Chequerboard synergy with polymyxin B (FICI). The format is cell-based.
Excerpt: as §1, §2, §3, §4, §5, §6, §7

Assay [5] deals with GN48 Klebsiella pneumoniae. Briefly: Pre-chequerboard MIC, broth microdilution (Example 6). The format is cell-based. The following applies: GN48 / NCTC 13443, NCTC 13443, NDM-1.
Excerpt: as §1, §2, §3
Background: In broth dilution the organism is exposed to a series of concentrations in liquid medium.

For assay [6], the system named is GN31 Acinetobacter baumannii. Described as above. The format is cell-based. The following applies: antibiotic susceptible clinical isolate.
Excerpt: as §1, §2, §3

Assay [7] concerns GN52 Acinetobacter baumannii. The description is as above. The format is cell-based. The following applies: levofloxacin resistant clinical isolate.
Excerpt: as §1, §2, §3

The subject of assay [8] is GN56 Acinetobacter baumannii. Described as above. The format is cell-based. Conditions: levofloxacin resistant clinical isolate.
Excerpt: as §1, §2, §3

Assay [9] concerns GN10 Pseudomonas aeruginosa. The description is as above. The format is cell-based. The following applies: ATCC 27853 / GN10, ATCC 27853, antibiotic susceptible.
Excerpt: as §1, §2, §3

For assay [10], the system named is E. coli 25922. Briefly: MIC, standard panel of Gram-positive and Gram-negative bacteria (CLSI). The format is cell-based, Escherichia coli. Conditions: Escherichia coli, 25922, read-out: MIC E. coli 25922.
Assay [11] has as its system S. aureus 25923. The assay is described as above. The format is cell-based, Staphylococcus aureus. The following applies: Staphylococcus aureus, 25923, read-out: MIC S. aureus 25923.
Assay [12] relates to E. faecium 19434. Described as above. The format is cell-based, Enterococcus faecium. Conditions: Enterococcus faecium, 19434, read-out: MIC E. faecium 19434.
Assay [13] deals with A. baumanii 19606. Described as above. The format is cell-based. The following applies: Acinetobacter baumannii, 19606, read-out: MIC A. baumanii 19606.
Assay [14] has as its system E. faecalis 29212. The description is as above. The format is cell-based, Enterococcus faecalis. Conditions: Enterococcus faecalis, 29212, read-out: MIC E. faecalis 29212.
The subject of assay [15] is S. epidermis 12228. Described as above. The format is cell-based, Staphylococcus epidermis. The following applies: Staphylococcus, 12228, read-out: MIC S. epidermis 12228.
Assay [16] deals with S. aureus 25923 HS. The assay is described as above. The format is cell-based. The following applies: Staphylococcus aureus, read-out: MIC S. aureus 25923 HS.
The subject of assay [17] is E. cloacae 13047. The assay is described as above. The format is cell-based, Enterobacter cloacae. Conditions: Enterobacter cloacae, 13047, read-out: MIC E. cloacae 13047.
Assay [18] deals with S. aureus 101. The description is as above. The format is cell-based, Staphylococcus aureus. Conditions: Staphylococcus aureus, 101, read-out: MIC S. aureus 101.
Assay [19] concerns P. aeruginosa 27853. The assay is described as above. The format is cell-based, Pseudomonas aeruginosa. Conditions: Pseudomonas aeruginosa, 27853, read-out: MIC P. aeruginosa 27853.

Take Polymyxin B: the “Polymyxin B MIC alone” value in [1] was 0.5 µg/mL; in assay [2] it was 0.25 µg/mL and 0.5 µg/mL; in assay [3], 0.5 µg/mL; in assay [4] it was 0.5 µg/mL.
On to `Cc1c(-c2ccc3[nH]ncc3c2)ccn2c(=O)c(C(=O)O)cc(C3CC3)c12` [Compound 35, 8-(1H-indazol-5-yl)-1-cyclopropyl-9-methyl-4-oxo-quinolizine-3-carboxylic acid], for which the “Combination drug MIC alone” value in assay [1] stood at 16 µg/mL. Besides, the Synergy entry in [1] (combination with polymyxin B) is on record as “partial synergy”. For the same molecule, the MIC in [5] came to 16 µg/mL; in assay [6], 0.03 µg/mL; in [7] it was 2 µg/mL; in [8] it was 8 µg/mL; in assay [9], 0.25 µg/mL.
Regarding `CN[C@H](CC(C)C)C(=O)N[C@H]1C(=O)N[C@@H](CC(N)=O)C(=O)N[C@H]2C(=O)N[C@H]3C(=O)N[C@H](C(=O)N[C@H](C(=O)O)c4cc(O)cc(O)c4-c4cc3ccc4O)[C@H](O)c3ccc(c(Cl)c3)Oc3cc2cc(c3O[C@@H]2O[C@H](CO)[C@@H](O)[C@H](O)[C@H]2O[C@H]2C[C@](C)(N)[C@H](O)[C@H](C)O2)Oc2ccc(cc2Cl)[C@H]1O` [Vancomycin, reference compound], the MIC was above 128 µg/mL in assay [10]; 2 µg/mL (≈ 1.38 µM) in [11]; 1 µg/mL (≈ 0.69 µM) in assay [12]; above 128 µg/mL in [13]; 2 µg/mL (≈ 1.38 µM) in [14]; 2 µg/mL (≈ 1.38 µM) in [15]. Also, the MIC in assay [16] was 2 µg/mL (≈ 1.38 µM); in [17] it was above 128 µg/mL; in assay [18] it was 2 µg/mL (≈ 1.38 µM); in assay [19], above 128 µg/mL.

As a reminder, the MIC is the lowest concentration found to suppress growth.
